Results: patent US20140356383A1, “ADMINISTRATION OF AN ANTI-GCC ANTIBODY-DRUG CONJUGATE AND A DNA DAMAGING AGENT IN THE TREATMENT OF CANCER” (priority 2013, published 2014)

Test system: PHTX-9c primary human colon tumor xenograft
Experiment: Single agent antitumor activity in PHTX-9c (PHTX-09c) primary human colon tumor xenograft
Experimental: Female CB-17 SCID mice (eight weeks old) were inoculated subcutaneously (SC) into the flank with PHTX-9c tumor fragments (2 mm×2 mm). Tumor growth was monitored twice per week using vernier calipers and the mean tumor volume was calculated using the formula (0.5×[length×width^2]). When the mean tumor volume reached approximately 150 mm^3 (Study A) or 160 mm^3 (Study B), animals were randomized into treatment groups (n=10/group for Study A and n=9/group for Study B).
Doses were administered on Days 1, 8, and 15 for the QW schedule and Days 1, 4, 8, 11, 15, and 18 for the BIW schedule. […] The equivalent dose of linker+MMAE is 4% of the 5F9-vcMMAE dose. These calculations are based on a mean 3.9 MMAE molecules per antibody and a free antibody molecular weight of 150 kD. Actual antibody molecular weight will vary slightly due to degree of glycosylation.
Tumor volume and body weight were measured twice weekly and were continued beyond the treatment period to measure regrowth kinetics, as evidenced by tumor growth delay (TGD). Tumor volume measurements were continued until tumor volume reached 10% of the body weight in a single mouse within a treatment group, at which time the group was terminated. The percentage of tumor growth inhibition (TGI) ([mean tumor volume of the control group—mean tumor volume of a treated group]/mean tumor volume of the control group; a T/C ratio) was determined on Day 20. The T/C ratios across a treatment group were compared to the T/C ratios of the control group using a two-tailed Welch's t-test.
The differences in the tumor growth trends over time between pairs of treatment groups were assessed using linear mixed effects regression models. These models account for the fact that each animal was measured at multiple time points. A separate model was fit for each comparison, and the areas under the curve (AUC) for each treatment group were calculated using the predicted values from the model. The percent decrease in AUC (dAUC) relative to the reference group was then calculated.
The 5F9 vcMMAE immunoconjugate was tested for single agent anti-tumor activity in the four primary human tumor xengraft models at varying concentrations in order to explore whether GCC expression levels played a role in tumor sensitivity. […] Free-MMAE was also used as a negative control.

[1] = Study A, 0.938 mg/kg IV QW × 3 doses
[2] = Study A, 1.875 mg/kg IV QW × 3 doses
[3] = Study A, 3.75 mg/kg IV QW × 3 doses
[4] = Study A, 7.5 mg/kg IV QW × 3 doses
[5] = Study B, 0.938 mg/kg IV QW × 3 doses
[6] = Study B, 1.875 mg/kg IV QW × 3 doses
[7] = Study B, 3.75 mg/kg IV BIW × 6 doses
[8] = Study B, 3.75 mg/kg IV QW × 3 doses
[9] = Study B, 7.5 mg/kg IV QW × 3 doses
[10] = Study B, 10.0 mg/kg IV QW × 3 doses

5F9 vcMMAE: 5F9 mAb conjugated to MMAE using a vc (Val-Cit) linker; average drug loading about 3.6
day tumors start to re-grow (PHTX-09c, 7.5 mg/kg and 10 mg/kg): ~40 days
anti-tumor activity maintained post-dosing (PHTX-09c, 7.5 mg/kg and 10 mg/kg, last dose on day 15): 3 weeks
single agent anti-tumor activity (PHTX-09c, 1.875-10 mg/kg I.V. QW×3 weeks): strong
T/C (PHTX-09c, dose 0.938-10 mg/kg, QW, T/C=volume of tumor/control): 0.09
BW change (mean maximum percent) [1]: 9.0%
TGD [1]: 3.3 days
TGI (Study A, 0.938 mg/kg IV QW × 3 doses, Day 20): 21.4 (p > 0.05) %
BW change (mean maximum percent) [2]: 10.6%
TGD [2]: 8.2 days
TGI (Study A, 1.875 mg/kg IV QW × 3 doses, Day 20): 44.7 (p > 0.001) %
BW change (mean maximum percent) [3]: 9.0%
TGD [3]: 17.8 days
TGI (Study A, 3.75 mg/kg IV QW × 3 doses, Day 20): 65.3 (p > 0.001) %
BW change (mean maximum percent) [4]: 7.5%
days until first tumor >1000 mm^3 [4]: (>58 days
TGI (Study A, 7.5 mg/kg IV QW × 3 doses, Day 20): 84.1 (p > 0.001) %
BW change (mean maximum percent) [5]: −2.3%
TGD [5]: 3.8 days
TGI (Study B, 0.938 mg/kg IV QW × 3 doses, Day 20): 20.7 (p > 0.001) %
BW change (mean maximum percent) [6]: 5.6%
TGD [6]: 6.6 days
TGI (Study B, 1.875 mg/kg IV QW × 3 doses, Day 20): 41.3 (p > 0.001) %
BW change (mean maximum percent) [7]: −1.8%
TGD [7]: 31.9 days
TGI (Study B, 3.75 mg/kg IV BIW × 6 doses, Day 20, 3.75 mg/kg): 84.9 (p > 0.001) %
BW change (mean maximum percent) [8]: −2.2%
TGD [8]: 16 days
TGI (Study B, 3.75 mg/kg IV QW × 3 doses, Day 20): 65.7 (p > 0.001) %
BW change (mean maximum percent) [9]: 6.5%
days until first tumor >1000 mm^3 [9]: (>47 days
TGI (Study B, 7.5 mg/kg IV QW × 3 doses, Day 20): 84.3 (p > 0.001) %
BW change (mean maximum percent) [10]: 7.2%
days until first tumor >1000 mm^3 [10]: (>56 days
TGI (Study B, 10.0 mg/kg IV QW × 3 doses, Day 20, 10 mg/kg): 91.2 (p > 0.001) %
greatest maximum body weight loss during treatment period (Study B, day 7, 0.18 mg/kg MMAE group and 0.938 mg/kg 5F9-vcMMAE group): 2.3%
TGI (both studies (A and B), 0.938 mg/kg IV QW): 20.7-21.4%
TGI (both studies (A and B), 1.875 mg/kg IV QW): 41.3-44.7%
TGI (both studies (A and B), 3.75 mg/kg IV QW): 65.3-65.7%
TGI (both studies (A and B), 7.5 mg/kg IV QW): 84.1-84.3%
